Assay [1] can be described thus: Compound was evaluated for its ability to reverse ACPD-induced inhibition of forskolin-stimulated cAMP formation in the human mGluR2 expressing non-neuronal cells. The assay is classed as functional. (In general: Changes in cAMP serve as a functional read-out for many G protein-coupled receptors.)
Assay [2] deals with Metabotropic glutamate receptor. Description: Compound was tested for its ability to displace metabotropic glutamate binding to rat brain membranes using [3H]glutamate radioligand. The assay is classed as tissue-based, Membrane.

Experimental findings from ChEMBL document CHEMBL1129486, “(2S,4S)-2-amino-4-(4,4-diphenylbut-1-yl)- pentane-1,5-dioic acid: a potent and selective antagonist for metabotropic glutamate receptors negatively linked to adenylate cyclase” (J Med Chem, 1996) are described below.

With `N[C@@H](C[C@@H](CCCC(c1ccccc1)c1ccccc1)C(=O)O)C(=O)O`, the IC50 (usually the concentration that gives 50% inhibition) in assay [1] was 171 µM; in assay [2], 55.3 µM.
`N[C@@H](CC(CCCC(c1ccccc1)c1ccccc1)C(=O)O)C(=O)O` (stereo not given in full) registered an IC50 in assay [2] of 4.2 µM.
Regarding `N[C@@H](C[C@H](CCCC(c1ccccc1)c1ccccc1)C(=O)O)C(=O)O`, the IC50 turned out to be 18.1 µM in assay [1] and 4.1 µM in assay [2].
